target: T1, human HSD1 (recombinant HSD1) (Homo sapiens, UniProt P28845); experiment: In vitro HSD1 activity inhibitory action, SPA of cortisone to cortisol conversion; assay type: biochemical; details: recombinant human HSD1 0.1 μg/ml, 500 μM NADPH, 16 nM 3H cortisone, room temperature 90 min, read-out: hHSD1 IC50
T1 construct: made in house
Method: In Vitro HSD1 (Hydroxysteroid Dehydrogenase 1) Activity Inhibitory Action
The HSD1 inhibitory activity was examined by quantitative determination by an SPA (scintillation proximity assay) system of the suppressive action on the conversion from cortisone to cortisol using human HSD1 (hereinafter recombinant HSD1) expressed using a baculo-virus system as an enzyme source. For the reaction, a reagent was added to a 96 well plate (96 well Opti-plates™-96 (Packard)) to the following final concentration and a volume of 100 μl was reacted at room temperature for 90 min. The reaction solution used was 0.1 μg/ml recombinant HSD1, 500 μM NADPH, 16 nM ^3H cortisone (Amersham Biosciences, 1.78 Tbq/mol) dissolved in 0.1% BSA (Sigma)-containing PBS and the test drug was 2 μl of a compound solution (dissolved in DMSO). After 90 min, the reaction was stopped by adding PBS (40 μl, containing 0.1% BSA (Sigma)) containing 0.08 μg of anti-cortisol mouse monoclonal antibody (East Coast Biologics), 365 μg SPA PVT mouse antibody-binding beads (Amersham Biosciences) and 175 μM carbenoxolone (Sigma) to the reaction solution. After the completion of the reaction, the plate was incubated overnight at room temperature and the radioactivity was measured by Topcount (Packard). For control, the value (0% inhibition) of the well containing 2 μl of DMSO instead of the test drug was used, and for positive control, the value (100% inhibition) of the well containing carbenoxolone instead of the test drug at the final concentration of 50 μM was used. The inhibition (%) of the test drug was calculated by ((value of control−value of test drug)/(value of control−value of positive control))×100 (%). The IC50 value was analyzed using a computer-based curve fitting soft.

T1 sequence (P28845 whole entry): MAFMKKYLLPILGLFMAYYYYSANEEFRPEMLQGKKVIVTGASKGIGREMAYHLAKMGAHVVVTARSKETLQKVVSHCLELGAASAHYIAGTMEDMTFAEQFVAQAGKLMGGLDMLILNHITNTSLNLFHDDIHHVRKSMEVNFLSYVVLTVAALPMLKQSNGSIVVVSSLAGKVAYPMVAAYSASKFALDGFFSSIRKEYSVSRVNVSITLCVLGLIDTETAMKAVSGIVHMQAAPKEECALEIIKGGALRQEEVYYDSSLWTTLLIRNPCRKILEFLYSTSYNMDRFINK

| SMILES | IC50 |
| --- | --- |
| CC(C)n1c(-c2ccc(Cl)cc2)nnc1C1(c2ccc(F)cc2)CC1 [Ex. 1-106] | < 10 nM |
| COc1cc(C(=O)O)ccc1-c1nnc(C2(c3ccccc3)CC2)n1C [Ex. 1-124] | 10 to 1000 nM |
| Cn1c(-c2ccc(C(N)=O)cc2Cl)nnc1C1(c2ccc(F)cc2)CC1 [Ex. 1-127] | < 10 nM |
| Cn1c(-c2ccc(C(=O)NCC(F)(F)F)cc2Cl)nnc1C1(c2ccccc2)CC1 [Ex. 1-83] | 10 to 1000 nM |
| Cn1c(C2(c3ccccc3)CC2)nnc1[C@H]1CC[C@H](CO)CC1 [Ex. 1-105] | < 10 nM |
| COC(=O)Nc1ccc(Cl)c(-c2nnc(C3(c4ccc(F)cc4)CC3)n2C)c1 [Ex. 1-150] | < 10 nM |
| CNC(=O)c1ccc(-c2nnc(C3(c4ccccc4)CC3)n2C)c(Cl)c1 [Ex. 1-75] | < 10 nM |
| Cn1c(-c2ccc(Cl)cc2F)nnc1C1(c2ccccc2)CC1 [Ex. 1-95] | < 10 nM |
| CN(C)C(=O)c1ccc(-c2nnc(C3(c4ccccc4)CC3)n2C)c(Cl)c1 [Ex. 1-77] | 10 to 1000 nM |
| CC(C)n1c(-c2cccc(C(N)=O)c2)nnc1C1(c2ccc(F)cc2)CC1 [Ex. 1-161] | < 10 nM |
| Cn1c(-c2ccc(N3CCN(S(C)(=O)=O)CC3)cc2Cl)nnc1C1(c2ccccc2)CC1 [Ex. 1-50] | < 10 nM |
| CC(=O)Nc1ccc(-c2nnc(C3(c4ccc(F)cc4)CC3)n2C)c(Cl)c1 [Ex. 1-47] | < 10 nM |
| Cn1c(-c2ccc(NC(N)=O)cc2Cl)nnc1C1(c2ccccc2)CC1 [Ex. 1-35] | < 10 nM |
| Cn1c(-c2ccc(N3CCCC(O)C3)cc2Cl)nnc1C1(c2ccccc2)CC1 (centres unmarked) [Ex. 1-66] | < 10 nM |
| Cn1c(-c2ccc(C(=O)NCC(N)=O)cc2Cl)nnc1C1(c2ccccc2)CC1 [Ex. 1-82] | < 10 nM |
| Cn1c(-c2ccncc2Cl)nnc1C1(c2ccccc2)CC1 [Ex. 1-96] | < 10 nM |
| CNC(=O)C1CCN(c2ccc(-c3nnc(C4(c5ccccc5)CC4)n3C)c(Cl)c2)CC1 [Ex. 1-60] | < 10 nM |
| Cn1c(-c2ccc(NS(C)(=O)=O)cc2Cl)nnc1C1(c2ccccc2)CC1 [Ex. 1-22] | < 10 nM |
| CC1CCN(c2ccc(-c3nnc(C4(c5ccccc5)CC4)n3C)c(Cl)c2)CC1 [Ex. 1-56] | < 10 nM |
| Cn1c(-c2ccc(Cl)nc2Cl)nnc1C1(c2ccccc2)CC1 [Ex. 1-97] | 10 to 1000 nM |
| Cn1c(-c2ccc(Br)cc2Cl)nnc1C1(c2ccccc2)CC1 [Ex. 1-100] | < 10 nM |
| Cn1c(C2CCN(c3c(Cl)cncc3Cl)CC2)nnc1C1(c2ccccc2)CC1 [Ex. 1-15] | < 10 nM |
| CC(=O)N1CCN(c2ccc(-c3nnc(C4(c5ccccc5)CC4)n3C)c(Cl)c2)CC1 [Ex. 1-49] | < 10 nM |

| SMILES | IC50 |
| --- | --- |
| COc1ccc(-c2nnc(C3(c4ccccc4)CC3)n2C)c(Cl)c1 [Ex. 1-76] | < 10 nM |
| Cn1c(-c2ccc(NC(=O)CN3CCOCC3)cc2Cl)nnc1C1(c2ccccc2)CC1 [Ex. 1-31] | < 10 nM |
| CCn1c(-c2ccc(C(N)=O)cc2Cl)nnc1C1(c2ccccc2)CC1 [Ex. 1-158] | < 10 nM |
| Cn1c(-c2ccc(C(=O)NCCO)cc2Cl)nnc1C1(c2ccccc2)CC1 [Ex. 1-78] | 10 to 1000 nM |
| Cn1c(-c2ccc(N3CCCC3)cc2Cl)nnc1C1(c2ccccc2)CC1 [Ex. 1-57] | < 10 nM |
| Cn1c(-c2ccc(C(=O)O)cc2Cl)nnc1C1(c2ccc(F)cc2)CC1 [Ex. 1-126] | 10 to 1000 nM |
| CC(=O)NCCn1c(C2CCN(c3c(Cl)cncc3Cl)CC2)nnc1C1(c2ccccc2)CC1 [Ex. 1-7] | 10 to 1000 nM |
| Cn1c(-c2ccc(N3CCCC3=O)cc2Cl)nnc1C1(c2ccccc2)CC1 [Ex. 1-27] | 10 to 1000 nM |
| Cn1c(-c2ccc(C(=O)N3CCC(O)CC3)cc2Cl)nnc1C1(c2ccccc2)CC1 [Ex. 1-81] | 10 to 1000 nM |
| Cn1c(-c2ccc(N)cc2Cl)nnc1C1(c2ccccc2)CC1 [Ex. 1-26] | < 10 nM |
| Cn1c(C2CCN(Cc3c(Cl)cccc3Cl)CC2)nnc1C1(c2ccccc2)CC1 [Ex. 1-99] | 10 to 1000 nM |
| Cn1c(-c2ccc(NCCO)cc2Cl)nnc1C1(c2ccc(F)cc2)CC1 [Ex. 1-120] | < 10 nM |
| Cn1c(-c2ccc(NC(=O)N3CCCC(O)C3)cc2Cl)nnc1C1(c2ccccc2)CC1 (centres unmarked) [Ex. 1-41] | 10 to 1000 nM |
| Cn1c(-c2ccc(N3CCOCC3)cc2Cl)nnc1C1(c2ccc(F)cc2)CC1 [Ex. 1-55] | < 10 nM |
| Cn1c(-c2ccc(N3CCOCC3)cc2)nnc1C1(c2ccccc2)CC1 [Ex. 1-46] | 10 to 1000 nM |
| Cn1c(C2CCN(c3ncccc3Cl)CC2)nnc1C1(c2ccccc2)CCCC1 [Ex. 1-2] | < 10 nM |
| Cn1c(-c2ccc(OCCN)cc2Cl)nnc1C1(c2ccccc2)CC1 [Ex. 1-130] | 10 to 1000 nM |
| CN(C)c1ccc(-c2nnc(C3(c4ccccc4)CC3)n2C)c(Cl)c1 [Ex. 1-89] | < 10 nM |
| CC(=O)NCCNC(=O)c1ccc(-c2nnc(C3(c4ccccc4)CC3)n2C)c(Cl)c1 [Ex. 1-84] | 10 to 1000 nM |
| COCCNC(=O)C1CCN(c2ccc(-c3nnc(C4(c5ccccc5)CC4)n3C)c(Cl)c2)CC1 [Ex. 1-110] | < 10 nM |
| COC1CCN(C(=O)Nc2ccc(-c3nnc(C4(c5ccccc5)CC4)n3C)c(Cl)c2)CC1 [Ex. 1-40] | 10 to 1000 nM |
| CC(=O)N1CCC(c2nnc(C3(c4ccccc4)CC3)n2C)CC1 [Ex. 1-4] | 10 to 1000 nM |
| Cn1c(-c2ccc(N3CCOC3=O)cc2Cl)nnc1C1(c2ccc(F)cc2)CC1 [Ex. 1-118] | < 10 nM |

The remaining lines, values ahead:

| IC50 | SMILES |
| --- | --- |
| < 10 nM | Clc1cnc(OC2CCN(c3nnc(C4(c5ccccc5)CC4)n3CC3CC3)CC2)c(Cl)c1 [Ex. 2-76] |
| < 10 nM | Cn1c(N2CCC(C(F)(F)F)CC2)nnc1C1(c2ccccc2)CC1 [Ex. 2-15] |
| 10 to 1000 nM | Cn1c(N2CCC(Oc3ccc(C(=O)O)cc3)CC2)nnc1C1(c2ccccc2)CC1 [Ex. 2-44] |
| 10 to 1000 nM | Cn1c(N2CCN(Cc3ccc(Cl)cc3Cl)CC2)nnc1C1(c2ccccc2)CC1 [Ex. 2-84] |
| 10 to 1000 nM | Cn1c(N2CCC(CO)(c3ccccc3)CC2)nnc1C1(c2ccccc2)CC1 [Ex. 2-17] |
| < 10 nM | Cn1c(N2CCC(C)(O)CC2)nnc1C1(c2ccccc2)CC1 [Ex. 2-59] |
| 10 to 1000 nM | COC(=O)c1cc(OC2CCN(c3nnc(C4(c5ccccc5)CC4)n3C)CC2)ccc1Cl [Ex. 2-62] |
| 10 to 1000 nM | Cn1c(N2CCC(Oc3cccc(CO)c3)CC2)nnc1C1(c2ccccc2)CC1 [Ex. 2-54] |
| 10 to 1000 nM | Cn1c(N2CC[S+]([O-])CC2)nnc1C1(c2ccccc2)CC1 [Ex. 2-23] |
| < 10 nM | Cn1c(N2CCC(C)(C)CC2)nnc1C1(c2ccccc2)CC1 [Ex. 2-58] |
| 10 to 1000 nM | CN(c1ncc(Cl)cc1Cl)C1CCN(c2nnc(C3(c4ccccc4)CC3)n2C)CC1 [Ex. 2-41] |
| < 10 nM | Cn1c(N2CCC(Oc3ncccc3Cl)CC2)nnc1C1(c2ccccc2)CC1 [Ex. 2-38] |
| 10 to 1000 nM | Cn1c(N2CCC(Oc3cccc(C(=O)O)c3)CC2)nnc1C1(c2ccccc2)CC1 [Ex. 2-45] |
| < 10 nM | COC(=O)c1cccc(OC2CCN(c3nnc(C4(c5ccccc5)CC4)n3C)CC2)c1 [Ex. 2-49] |
| 10 to 1000 nM | Cc1ccc(C2(c3nnc(N4CCC(Oc5ncc(Cl)cc5Cl)CC4)n3C)CC2)cc1 [Ex. 2-82] |
| 10 to 1000 nM | COC(=O)C1CCN(c2nnc(C3(c4ccccc4)CC3)n2C)CC1 [Ex. 2-4] |
| < 10 nM | Cn1c(N2CCCc3ccccc32)nnc1C1(c2ccccc2)CC1 [Ex. 2-25] |

| IC50 | SMILES |
| --- | --- |
| 10 to 1000 nM | Cn1c(N2CCC(NC(=O)c3ccc(Cl)cc3Cl)CC2)nnc1C1(c2ccccc2)CC1 [Ex. 2-10] |
| < 10 nM | CN(c1ccc(Cl)cc1)c1nnc(C2(c3ccccc3)CC2)n1C [Ex. 2-94] |
| 10 to 1000 nM | CC(C)Cn1c(N2CCC(Oc3ncc(Cl)cc3Cl)CC2)nnc1C1(c2ccccc2)CC1 [Ex. 2-77] |
| 10 to 1000 nM | Cn1c(N2CCC(Oc3ccc(Cl)c(C(N)=O)c3)CC2)nnc1C1(c2ccccc2)CC1 [Ex. 2-66] |
| < 10 nM | Cn1c(N2CCC(CCO)CC2)nnc1C1(c2ccccc2)CC1 [Ex. 2-61] |
| < 10 nM | Cn1c(N2CCC(CO)CC2)nnc1C1(c2ccccc2)CC1 [Ex. 2-6] |
| 10 to 1000 nM | Cn1c(N2CCN(c3ccc(Cl)cc3)CC2)nnc1C1(c2ccccc2)CC1 [Ex. 2-90] |
| < 10 nM | Cn1c(N2CCC(Oc3ccc(C#N)cc3)CC2)nnc1C1(c2ccccc2)CC1 [Ex. 2-52] |
| 10 to 1000 nM | COC1CCN(c2nnc(C3(c4ccccc4)CC3)n2C)CC1 [Ex. 2-43] |
| < 10 nM | COC(=O)C1(C)CCN(c2nnc(C3(c4ccccc4)CC3)n2C)CC1 [Ex. 2-67] |
| < 10 nM | Cn1c(N2Cc3ccccc3C2)nnc1C1(c2ccccc2)CC1 [Ex. 2-91] |
| < 10 nM | Cn1c(N2CCCCC2)nnc1C1(c2ccccc2)CC1 [Ex. 2-14] |
| 10 to 1000 nM | COc1ccc(C2(c3nnc(N4CCC(Oc5ncc(Cl)cc5Cl)CC4)n3C)CC2)cc1 [Ex. 2-83] |
| 10 to 1000 nM | Cn1c(N2CCC(Oc3ccc(Cl)c(C(=O)O)c3)CC2)nnc1C1(c2ccccc2)CC1 [Ex. 2-64] |
| 10 to 1000 nM | Cn1c(N2CCC(O)(c3ccccc3)CC2)nnc1C1(c2ccccc2)CC1 [Ex. 2-40] |
| < 10 nM | Cn1c(N2CCC(O)CC2)nnc1C1(c2ccccc2)CC1 [Ex. 2-32] |
| < 10 nM | Cn1c(N2CCOCC2)nnc1C1(c2ccccc2)CC1 [Ex. 2-20] |

— patent publication US8153631B2, “Triazole compounds and uses related thereto” (Amgen Inc., priority 2003, dated 2012)
